Test results taken from paper PMC7226839, “Modulation of STAT3 Signaling, Cell Redox Defenses and Cell Cycle Checkpoints by β-Caryophyllene in Cholangiocarcinoma Cells: Possible Mechanisms Accounting for Doxorubicin Chemosensitization and Chemoprevention” (Cells, 2020).
Counter-ions that a name gives are not always drawn. Like-named read-outs stand apart in the source and are kept apart here.

What was measured:
[1] = tested on: phospho(Tyr705)-STAT3 in H69 cholangiocytes; assay: Western blotting of phospho(Tyr705)-STAT3; assay type: cell-based; conditions: for enhancement of basal phospho(Tyr705)-STAT3 expression: doxorubicin 20 µM
Protocol: To perform the analysis, the cells were seeded in 6-well plates, then subjected to the treatment with β-caryophyllene (50 µM) and doxorubicin (20 µM), alone and in combination, for the required time exposure, then harvested by centrifugation and washed in PBS. A lysis buffer, containing SDS (2% w/w), Tris-hydrochloride (20 mM; pH 7.4), urea (2 M), glycerol (10% w/w), sodium orthovanadate (2 mM), DTT (10 mM) and a protease inhibitors cocktail (1:100 dilution) was used to achieve the cell protein separation. The separated proteins were resolved by SDS-PAGE 10% TGX FastCast™ Acrylamide gel (BioRad, Segrate, Italy) and transferred on PVDF membranes (BioRad, Segrate, Italy) by using a Trans-Blot® Turbo™ Transfer System (BioRad, Segrate, Italy). The membranes were blocked with a 0.2% w/v I-block (Thermo Fisher Scientific, Rodano, Italy) in Tris-buffered saline containing 0.05% Tween-20 (TBS-T), then stained with the desired primary antibodies. […] After rinsing three times in TBS-T to remove unbound primary antibody, the membranes were incubated for an additional hour with the appropriate horseradish peroxidase- or alkaline phosphatase-conjugated secondary antibody (Jackson ImmunoResearch, Pero, Italy). […] Each experiment was performed at least in three replicates.

[2] = tested on: Mz-ChA-1 cholangiocarcinoma cells
Protocol: To perform the assay, the cells were grown for 24 h into 96-well microplates (2 × 10^4 cells/well), then treated with the test substances and incubated according to the applied protocol schedule [26]. At the end of incubation, the cytotoxicity was measured by the 3-[4,5-dimethylthiazol-2-yl] -2,5-diphenyl tetrazolium bromide (MTT) assay, using an Epoch Microplate Spectrophotometer (BioTek, AHSI, Milan Italy). At least three biologic replicates, in which each concentration was tested in triplicate, were made. Comparing the number of viable cells in each treatment respect to the vehicle control allows to measure a cell viability reduction. The effect of the treatment was considered as cytotoxic when at least a 30% lowering of cell viability occurred [59].
In the single long-term schedule, confluence cells were exposed to the test substances for 24 h and 72 h (Figure S1), then the cytotoxicity was measured by the MTT assay. Under the metronomic treatment, the cells were subjected to a short and/or repeated exposure of 2 h to the test substances (Figure S2), as follow: 1) single treatment, the cells were treated for 2 h, then washed and incubated for 72 h; 2) two-repeated treatments, the cells were exposed to the test substances for 2 h, then washed and incubated for functional recovery for further 2 h. After recovering, the cells were further treated with the test substances for 2 h, washed and incubated for 72 h. Finally, the cytotoxicity was measured by the MTT assay as described above.
The type of interaction between β-caryophyllene and doxorubicin, i.e., synergy, additivity or antagonism, was evaluated by measuring three parameters: reversal ratio value (RR), combination index (CI) and isobolographic analysis (IB) [24].
RR represents the cytotoxicity enhancement ratio and allows to quantify the efficacy increase of a drug (A) in the presence of a chemosensitizing agent (B), by relating the IC50 of A alone (CA) and that of IC50 of its combination with B (CA+B).
CI gives a quantitative measure of the interaction and is calculated as follow: (CA,X/ICX,A) + (CB, X/ICX,B), in which CA,X and CB,X are the concentrations of A and B at the IC50 value of their combination, whereas ICX,A and ICX,B are the IC50 values of the substances alone. When the CI value was equal to, less or higher than 1, the interaction between test substances was evaluated as additivity, synergism and antagonism, respectively.
The isobolographic analysis, displaying the extent of the interaction between drug A and the potential chemosensitizer B, was obtained by a two-coordinate plot, wherein the IC50 concentrations of A and B were plotted on the x and y axes, corresponding to (CA, 0) and (C0, B), respectively. The substance concentrations used in the combination (CA+B) were placed in the same plot. A nonlinear regression analysis was carried out by GraphPad Prism™ 6.00 software, in order to connect the IC50 value of each drug alone and that of the combination, whereas the line connecting CA and CB represented an additive interaction. A synergism between A and B occurred when CA+B were located below the line, while the interaction was antagonistic when the values were above the line [60].

[3] = tested on: glutathione in Mz-ChA-1 cholangiocarcinoma cells; assay: HPLC determination of intracellular GSH and GSSG; assay type: cell-based, human
Protocol: (§1) Intracellular levels of reduced (GSH) and oxidized (GSSG) glutathione were measured by HPLC-UV, as previously described. Briefly, after treatments with β-caryophyllene (50 µM) and doxorubicin (20 µM), the harvested cells (1 × 10^6 cells) were suspended in 10% ice-cold TCA and centrifuged for 15 min at 9000× g, then supernatant was collected and GSH and GSSG measured by HPLC with UV detection at 215 nm. The separation was achieved using a InfinityLab poroshell 120 EC-C18 column (3 × 150 mm, 2.7 μm) at a flow rate of 0.8 mL/min, using the following elution gradient: 0–3 min 100% A + 0% B, 3–10 min from 100% A to 100% B. The mobile phase A contained 0.1% trifluoroacetic acid in water, whereas mobile phase B was 0.1% trifluoroacetic acid in water/acetonitrile (93:7). Under our chromatographic conditions, retention times of GSH and GSSG were 2.58 min and 7.01 min, respectively.

[4] = tested on: glutathione in H69 noncancerous cholangiocytes; assay: HPLC determination of intracellular GSH and GSSG; assay type: cell-based; conditions: H69, 24 h
Protocol: as §1

[5] = tested on: ROS in Mz-ChA-1 cholangiocarcinoma cells; assay: Intracellular ROS determination (DCFH-DA); assay type: cell-based, human; conditions: β-caryophyllene 50 µM, doxorubicin 20 µM
Protocol: To perform the assay, the cells, seeded in 6-well plates (1 × 10^6 cells/well), were treated with the tested substances (β-caryophyllene, 50 µM; doxorubicin, 20 µM) for the required time exposure, then the ROS levels were measured in the pellets by the 2,7-dichlorofluorescein diacetate assay (DCFH-DA), as previously reported. […] In each experiment, a vehicle control, corresponding to a basal ROS level, were included too. For all the treatments, the mean DCF fluorescence of 50,000 cells was determined by a BD Accuri^TM C6 Software version 1.0.264.21 (BD Biosciences, Milan, Italy).

## C=C1CC/C=C(\C)CC[C@@H]2[C@@H]1CC2(C)C [β-Caryophyllene, β-caryophyllene]
[1]; H69, β-caryophyllene 50 µM alone
  effect on phospho(Tyr705)-STAT3 expression: did not affected the protein expression
[2]; Mz-ChA-1
  fold more toxic after 72 h with respect to the other schedules (IC50 comparison): 1.4- to 2 fold
[2]; Mz-ChA-1, 50 μM
  reduction of cell viability: lower than 20%
[2]; Mz-ChA-1, concentrations higher than 50 μM, 24 h and 72 h
  inhibition of cell viability vs. control: about 20%
[2]; Mz-ChA-1, metronomic schedule
  nontoxic up to (concentration): up to 125 μM
[3]; Mz-ChA-1, 24 h
  change in GSSG: without changes in GSSG
[3]; Mz-ChA-1, 24 h, β-caryophyllene 50 µM
  increase of GSH levels vs. control: about 2.5 fold
[3]; Mz-ChA-1, β-caryophyllene alone
  increase of GSH/GSSG ratio: about 2 fold
[4]
  change in the amount of GSSG: slightly increased
[4]; β-caryophyllene 50 µM
  basal GSH/GSSG ratio: retained
  enhancement of GSH: ~1.5 fold
[5]; Mz-ChA-1, 2 h
  increase of ROS levels with respect to the control: about 1.6 fold
[5]; Mz-ChA-1, 24 h
  increase of ROS levels with respect to the control: ~1.2 fold

## COc1cccc2c1C(=O)c1c(O)c3c(c(O)c1C2=O)C[C@@](O)(C(=O)CO)C[C@@H]3O[C@H]1C[C@H](N)[C@H](O)[C@H](C)O1 [Doxorubicin, doxorubicin hydrochloride]
[1]; H69, 2 h
  enhancement of basal phospho(Tyr705)-STAT3 expression: ~6 fold
[1]; H69, 24 h
  enhancement of basal phospho(Tyr705)-STAT3 expression: ~10 fold
[2]
  cytotoxicity increase produced by the double repeated exposure: 10%
[2]; Mz-ChA-1
  IC50 lowering, double repeated 2 h metronomic vs 24 h protocol: ~2.4 fold
  IC50 lowering, single 2 h metronomic vs 24 h protocol: about 1.4 fold
  IC50 reduction, double short exposure vs single 2 h treatment: 1.7 fold
  anticancer power under metronomic conditions lower than after 72 h: 3- to 5 fold
  potency increase, 72 h with respect to 24 h (IC50 comparison): at least 7 fold
[2]; Mz-ChA-1, 1 µM, 72 h
  inhibition of cell viability: about 20%
[2]; Mz-ChA-1, 10 μM, 2 h exposure protocol
  inhibition of cell viability: ≥ 35%
[2]; Mz-ChA-1, 10 µM, 24 h
  inhibition of cell viability: about 20%
[2]; Mz-ChA-1, 10 µM, 72 h
  inhibition of cell viability: about 80%
[2]; Mz-ChA-1, 100 μM, both metronomic schedules
  maximum inhibition of cell viability: 80%
[2]; Mz-ChA-1, 200 µM, 24 h
  maximum inhibition of cell viability: about 80%
[2]; Mz-ChA-1, concentrations lower than 10 μM, 2 h exposure protocol
  cell viability reduction vs. control: < 20%
[3]; Mz-ChA-1, 2 h
  lowering of GSH/GSSG ratio: 1.3 fold
[3]; Mz-ChA-1, 2 h, doxorubicin 20 µM
  change in GSH: not significantly decreased
[3]; Mz-ChA-1, 24 h
  change in GSSG: without changes in the GSSG amount
  lowering of GSH/GSSG ratio: 4 fold
[3]; Mz-ChA-1, 24 h, doxorubicin 20 µM
  reduction of GSH: at least 3 fold
[4]
  change in the amount of GSSG: slightly but not significantly reduced
  depletion of GSH: ~2 fold
  lowering of basal GSH/GSSG ratio: ~1.6 fold
[5]; Mz-ChA-1, 2 h
  increase of ROS levels with respect to the control: ~7 fold
[5]; Mz-ChA-1, 24 h
  increase of ROS levels with respect to the control: ~4 fold
